Patent US6399618B1, “Compositions and methods for modulating sexual activity” (priority 1997, dated 2002)
Where a name gives a salt, the structure may show the parent alone. Marks after values point to notes of the source that are not given here.

Columns and labels:
[1] = tested on: noradrenaline pre-contracted rabbit CC; assay: Direct action on penile erection: tone of corpus cavernosal muscle strips in organ bath; conditions: concentration from 10^-8 M to 10^-4 M; n=6
Procedure: Corpus cavernosal (CC) muscle strips were prepared from penises obtained from rabbit (n=6). CC strips were dissected free from tunica albungia and mounted in 10 or 25 mL organ baths containing Tyrode solution saturated with 95%O2/5% CO2 mixture.

male rats [2] = assay: Antagonism of XVIb-induced erections by comparative compounds in rats; type: in vivo, SD rats; conditions: for antagonism of the erectile promoting actions of XVIb: injected 30 minutes prior to XVIb 16 mg/kg ip, pindolol 0.1-3, scopolamine 0.1-3.0, haloperidol 0.01-0.3, ketanserin 0.1-3.0 mg/kg
Procedure: Male SD rats (300-500 g; n=6 per group) were injected with (±)-Pindolol, scopolamine, haloperidol, or ketanserin, 30 minutes prior to injection of a single dose of XVIb (16 mg/kg, ip) or saline.

male rats [3] = assay: Rat sexual behavior, proerectile actions of XVIIa and XVIIb (ip); type: in vivo, SD rats; conditions: 16 mg/kg ip
Procedure: Male SD rats (250-300 g) were injected with XVIIa (16 mg/kg, ip), XVIIb (16 mg/kg, ip) or distilled water (ip), and observed 5 minutes later for the number of erections (as characterized by penile grooming) and the time to the first erection, over a 60 minute observation period. Six rats at a time, housed singly, were observed by two observers. Treatments were administered in a standard randomized and double blinded manner.

male primates = assay: Sexual behavior in male primates, paired observation study (penile response grades); type: in vivo, macaca fascilaris; conditions: 1.0 mg/kg ip; N=3; observed 1 hour
Procedure: Monkeys used for testing were separated from the cluster of cages and treated and observed in pairs in the middle of the housing environment.
N=3 for all drug-treated animals, while N=18 for saline-treated animals. […] Data are expressed as the number of test animals having a particular grade of penile response. Penile responses were scored every 10 sec for 1 hour according to the following scale:
Grade 0=glans are hidden from the view
Grade 1=glans are clearly visible
Grade 2=penis is extended
Grade 4=erection with masturbation
Grade 5=erection with masturbation and ejaculation

male rats [4] = assay: Rat sexual behavior, proerectile actions (injected); type: in vivo, SD rats; conditions: for Erections/60 minutes / Latency to the first erection: mean±sem; for Erections/60 minutes / Latency to the first erection / Responders: n=10
Procedure: Male SD rats (350-450 g; n=10 per group) were injected with increasing doses of XVIb (4.0-64.0 mg/kg), XVIa (1.0, 4.0 or 16 mg/kg) or saline and observed 5 minutes later, in groups of 5, for the number of erections and the time to the first erection, over a 60 minutes observation period.
In Table 2, the effects of XVIb, XVIa and saline on erection in male rats is indicated. Data is expressed as the mean±sem for 10 test animals. Data marked with an asterisk “*” indicate significant difference from saline (α<0.05) as determined by ANOVA with Tukey test for multiple comparisons.

1-methyl-4-trifluoromethylphenylpiperazine
effect on tone of noradrenaline pre-contracted rabbit CC [1]: failed to reduce tone

CC(C)NCC(O)COc1cccc2[nH]ccc12 (racemic) [(±)-Pindolol]
erections after (±)-pindolol pretreatment plus XVIb (male rats [2]; highest dose tested of (±)-pindolol, XVIb 16 mg/kg ip, n=6): 2.0±0.4 erections/60 minutes | antagonism of the erectile promoting actions of XVIb (male rats [2]): antagonized the erectile promoting actions

O=c1n(CCCN2CCN(c3cccc(Cl)c3)CC2)nc2ccccn12 [Trazodone]
effect on tone of noradrenaline pre-contracted rabbit CC [1]: reduced tone of rabbit CC in a dose dependent manner

CN1CCN(C(=O)Cc2ccc(Cl)c(Cl)c2)CC1 [XVIIa, 1-Methyl-4-(2-(3,4-Dichlorophenyl)acetyl)piperazine Monohydrochloride]
Responders (male rats [3]): 67% | latency to first erection (male rats [3]): 6 min | maximum number of erections/rat (male rats [3]): 3 h⁻¹

COc1ccc(CC(=O)N2CCN(C)CC2)cc1OC [XVIIb, 1-Methyl-4-(3,4-Dimethoxyacetyl)Piperazine Monohydrochloride]
Responders (male rats [3]): 100% | latency to first erection (male rats [3]): 16 min | maximum number of erections/rat (male rats [3]): 5 h⁻¹

CN1CCN(C(=O)Cc2cccc3ccccc23)CC1 [XVIa, 1-Methyl-4(1-naphthaleneacetyl)piperazine monohydrochloride]
number of test animals having Grade 0 penile response (glans are hidden from the view) (male primates): 1 | number of test animals having Grade 1 penile response (glans are clearly visible) (male primates): 2 | number of test animals having Grade 2 penile response (penis is extended) (male primates): 2 | number of test animals having Grade 3 penile response (full erection) (male primates): 1 | number of test animals having Grade 4 penile response (erection with masturbation) (male primates): 1 | number of test animals having Grade 5 penile response (erection with masturbation and ejaculation) (male primates): 0 | Erections/60 minutes (male rats [4]; 1.0 mg/kg): 1.2 ± 0.3 | Latency to the first erection (male rats [4]; 1.0 mg/kg): 1929 ± 432 s | Responders (male rats [4]; 1.0 mg/kg): 100% | Erections/60 minutes (male rats [4]; 4.0 mg/kg): 3.0 ± 0.6 | Latency to the first erection (male rats [4]; 4.0 mg/kg): 1749 ± 349 s | Responders (male rats [4]; 4.0 mg/kg): 100% | Erections/60 minutes (male rats [4]; 16.0 mg/kg): 5.4 ± 0.7* # | Latency to the first erection (male rats [4]; 16.0 mg/kg): 506 ± 105* sec | Responders (male rats [4]; 16.0 mg/kg): 100% | effect on penile erections (in words) (male rats [4]; 60 minutes observation): increased penile erections, although to a lesser degree than XVIb

CN1[C@@H]2C[C@@H](OC(=O)[C@H](CO)c3ccccc3)C[C@H]1[C@@H]1O[C@@H]12 [scopolamine]
antagonism of the erectile promoting actions of XVIb (male rats [2]): antagonized the erectile promoting actions | erections after scopolamine pretreatment plus XVIb (male rats [2]; scopolamine, XVIb 16 mg/kg ip, n=6): 1.2±0.3 erections/60 minutes

(±)-trans-N-[2-(1-(4-methyl)piperazinyl)cyclohexyl]naphthalene-2-acetamide monohydrochloride [XVb]
number of test animals having Grade 0 penile response (glans are hidden from the view) (male primates): 1 | number of test animals having Grade 1 penile response (glans are clearly visible) (male primates): 2 | number of test animals having Grade 2 penile response (penis is extended) (male primates): 2 | number of test animals having Grade 3 penile response (full erection) (male primates): 1 | number of test animals having Grade 4 penile response (erection with masturbation) (male primates): 0 | number of test animals having Grade 5 penile response (erection with masturbation and ejaculation) (male primates): 0

(±)-trans-N-methyl-[2-(1-(4-methyl)piperazinyl)cyclohexyl]naphthalene-1-acetamide monohydrochloride [Compound XVa]
number of test animals having Grade 0 penile response (glans are hidden from the view) (male primates): 1 | number of test animals having Grade 1 penile response (glans are clearly visible) (male primates): 2 | number of test animals having Grade 2 penile response (penis is extended) (male primates): 2 | number of test animals having Grade 3 penile response (full erection) (male primates): 2 | number of test animals having Grade 4 penile response (erection with masturbation) (male primates): 2 | number of test animals having Grade 5 penile response (erection with masturbation and ejaculation) (male primates): 0

(±)-trans-[2-(1-(4-methyl)piperazinyl)cyclohexyl]naphthalene-1-acetate monohydrochloride [XVc]
number of test animals having Grade 0 penile response (glans are hidden from the view) (male primates): 1 | number of test animals having Grade 1 penile response (glans are clearly visible) (male primates): 2 | number of test animals having Grade 2 penile response (penis is extended) (male primates): 2 | number of test animals having Grade 3 penile response (full erection) (male primates): 2 | number of test animals having Grade 4 penile response (erection with masturbation) (male primates): 2 | number of test animals having Grade 5 penile response (erection with masturbation and ejaculation) (male primates): 1
